Measured values taken from patent US20090036448A1, “PYRIMIDINE DERIVATIVES AND METHODS OF TREATMENT RELATED TO THE USE THEREOF” (TAISHO PHARMECUTICAL CO., LTD., priority 2004, published 2009).
Counter-ions that a name gives are not always drawn.

Each molecule was assayed against MCH receptor (Homo sapiens, UniProt Q99705) (assay: FLIPR/FDSS6000 functional assay: intracellular Ca2+ changes evoked by MCH). Conditions: class by percent of control at 10^−7 M or by IC50; antagonist activity, 50 nM of MCH; read-out: class.
Type: cell-based
Excerpt: Subsequently, a functional based assay was used to confirm the lead hits, referred to as FLIPR™ (the Fluorometric Imaging Plate Reader) and FDSS6000™ (Functional Drug Screening System). This assay utilized a non-endogenous, constitutively active version of the MCH receptor.
The FLIPR and FDSS assays are able to detect intracellular Ca^2+ concentration in cells, which can be utilized to assess receptor activation and determine whether a candidate compound is an, for example, antagonist, inverse agonist or agonist to a Gq-coupled receptor. The concentration of free Ca^2+ in the cytosol of any cell is extremely low, whereas its concentration in the extracellular fluid and endoplasmic reticulum (ER) is very high. Thus, there is a large gradient tending to drive Ca^2+ into the cytosol across both the plasma membrane and ER. The FLIPR™ and FDSS6000™ systems (Molecular Devices Corporation, HAMAMATSU Photonics K.K.) are designed to perform functional cell-based assays, such as the measurement of intracellular calcium for high-throughput screening. The measurement of fluorescent is associated with calcium release upon activation of the Gq-coupled receptors.
Fluorometric Imaging Plate Reader system was used to allow for rapid, kinetic measurements of intracellular fluorescence in 96 well microplates (or 384 well microplates). Simultaneous measurements of fluorescence in all wells can be made by FLIPR or FDSS6000™ every second with high sensitivity and precision. These systems are ideal for measuring cell-based functional assays such as monitoring the intracellular calcium fluxes that occur within seconds after activation of the Gq coupled receptor.
Briefly, the cells are seeded into 96 well at 5.5×10^4 cells/well with complete culture media (Dulbecco's Modified Eagle Medium with 10% fetal bovine serum, 2 mM L-glutamine, 1 mM sodium pyruvate and 0.5 mg/mL G418, pH 7.4) for the assay next day. On the day of assay, the media is removed and the cells are incubated with 100 μl of loading buffer (4 μM Fluo-4-AM in complete culture media containing 2.5 mM Probenicid, 0.5 mg/ml and 0.2% bovine serum albumin) in 5% CO2 incubator at 37° C. for 1 hr. The loading buffer is removed, and the cells are washed with wash buffer (Hank's Balanced Salt Solution containing 2.5 mM Probenicid, 20 mM HEPES, 0.5 mg/mL and 0.2% bovine serum albumin, pH 7.4). One hundred fifty μl of wash buffer containing various concentrations of test compound is added to the cells, and the cells are incubated in 5% CO2 incubator at 37° C. for 30 min. Fifty μl of wash buffer containing various concentration of MCH are added to each well, and transient changes in [Ca^2+]i evoked by MCH are monitored using the FLIPR or FDSS in 96 well plates at Ex. 488 nm and Em. 530 nm for 290 second. When antagonist activity of compound is tested, 50 nM of MCH is used.
Use of FLIPR™ and FDSS6000™ can be accomplished by following manufacturer's instruction (Molecular Device Corporation and HAMAMATSU Photonics K.K.).
For CNc1cc(N[C@H]2CC[C@@H](NC(=O)c3ccc(F)c(Cl)c3)CC2)nc(C)n1 [Example 31, 3-Chloro-4-fluoro-N-(cis-4-{[2-methyl-6-(methylamino)pyrimidin-4-yl]amino}cyclohexyl)-benzamide hydrochloride], the IC50 was 50 to 200 nM. With CCc1nc(N[C@H]2CC[C@@H](NC(=O)c3ccc(F)c(F)c3)CC2)cc(N(C)C)n1 [Example 32, N-(cis-4-{[6-(Dimethylamino)-2-ethylpyrimidin-4-yl]amino}cyclohexyl)-3,4-difluorobenzamide hydrochloride] the IC50 was < 50 nM. With CN(C)c1cc(N[C@H]2CC[C@@H](NC(=O)c3ccc(F)c(F)c3)CC2)nc(N(C)C)n1 [Example 33, N-(cis-4-{[2,6-bis(Dimethylamino)pyrimidin-4-yl]amino}cyclohexyl)-3,4-difluorobenzamide hydrochloride] the IC50 was 50 to 200 nM. For CCNc1nccc(N[C@H]2CC[C@@H](NC(=O)c3ccc(F)c(F)c3)CC2)n1 [Example 34, N-(cis-4-{[2-(Ethylamino)pyrimidin-4-yl]amino}cyclohexyl)-3,4-difluorobenzamide hydrochloride], the IC50 was > 200 nM. In the case of CCN(C)c1nccc(N[C@H]2CC[C@@H](NC(=O)c3ccc(F)c(F)c3)CC2)n1 [Example 35, N-[cis-4-({2-[Ethyl(methyl)amino]pyrimidine-4-yl}amino)cyclohexyl]-3,4-difluorobenzamide hydrochloride], the IC50 is reported as > 200 nM. With CN(CCO)c1nccc(N[C@H]2CC[C@@H](NC(=O)c3ccc(F)c(F)c3)CC2)n1 [Example 36, 3,4-Difluoro-N-[cis-4-({2-[(2-hydroxyethyl)(methyl)amino]pyrimidin-4-yl}amino)-cyclohexyl]benzamide hydrochloride] the IC50 was > 200 nM. For Cc1nc(N[C@H]2CC[C@@H](NC(=O)c3ccc(F)c(Cl)c3)CC2)cc(N2CCCCC2)n1 [Example 37, 3-Chloro-4-fluoro-N-{cis-4-[(2-methyl-6-piperidin-1-ylpyrimidin-4-yl)amino]cyclohexyl}-benzamide hydrochloride], the IC50 was > 200 nM. With Cc1nc(N[C@H]2CC[C@@H](NC(=O)c3ccc(F)c(Cl)c3)CC2)cc(-n2ccnc2)n1 [Example 38, 3-Chloro-4-fluoro-N-(cis-4-{[6-(1H-imidazol-1-yl)-2-methylpyrimidin-4-yl]amino}cyclohexyl)-benzamide dihydrochloride] the IC50 was > 200 nM. With Cc1nc(N[C@H]2CC[C@@H](NC(=O)c3ccc(F)c(Cl)c3)CC2)cc(N2CCOCC2)n1 [Example 39, 3-Chloro-4-fluoro-N-{cis-4-[(2-methyl-6-morpholin-4-ylpyrimidin-4-yl)amino]cyclohexyl}-benzamide hydrochloride] the IC50 was 50 to 200 nM. In the case of Cc1nc(N[C@H]2CC[C@@H](NC(=O)c3ccc(F)c(Cl)c3)CC2)cc(N2CCCC2)n1 [Example 40, 3-Chloro-4-fluoro-N-{cis-4-[(2-methyl-6-pyrrolidin-1-ylpyrimidin-4-yl)amino]cyclohexyl}-benzamide hydrochloride], the IC50 is reported as < 50 nM. With Cc1nc(N[C@H]2CC[C@@H](NC(=O)c3ccc(F)c(Cl)c3)CC2)cc(N2CCN(C)CC2)n1 [Example 41, 3-Chloro-4-fluoro-N-(cis-4-{[2-methyl-6-(4-methylpiperazin-1-yl)pyrimidin-4-yl]amino}-cyclohexyl)benzamide dihydrochloride] the IC50 was > 200 nM. With Cc1cc(N[C@H]2CC[C@@H](NC(=O)c3ccc(F)c(F)c3)CC2)nc(N(C)C)n1 [Example 43, N-(cis-4-{[2-(Dimethylamino)-6-methylpyrimidin-4-yl]amino}cyclohexyl)-3,4-difluorobenzamide hydrochloride] the IC50 was 50 to 200 nM. In the case of CN(C)c1nccc(N[C@H]2CC[C@@H](NC(=O)c3ccc(F)c(Cl)c3)CC2)n1 [Example 44, 3-Chloro-N-(cis-4-{[2-(dimethylamino)pyrimidin-4-yl]amino}cyclohexyl)-4-fluorobenzamide hydrochloride], the IC50 is reported as < 50 nM.
